Test results published in patent US11702422B2, “Imidazopyridazines as modulators of IL-17” (Janssen Pharmaceutica NV, priority 2020, dated 2023).

Key:
[1] = molecular target: IL-17A(FLAG-Tagged): IL-17RA(His-Tagged) (Homo sapiens, UniProt Q16552, K93Q); assay: IL-17A(FLAG-Tagged): IL-17RA(His-Tagged) Binding Disruption Eu-HTRF Assay; details: IL-17A/IL-17RA binding disruption, simple average if tested more than once
Outline: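 IC50 comes from a one-site competition fit of the HTRF 665/620 nm ratio. Compound dilutions (2-fold, 22 points) were held 1 h rt with FLAG-tagged IL-17A dimer, then His-tagged IL-17RA plus Eu-cryptate anti-FLAG and D2 anti-His antibodies were added for 2 h rt.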

[2] = system: IL-17A-induced G-CSF production in human normal keratinocyte (NHK); assay: NHK Assay: IL-17A-induced G-CSF production in human normal keratinocytes; format: cell-based; details: 24 h, adult normal human keratinocytes, IL-17A 5 ng/mL, simple average if tested more than once
Outline: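 Compound is first combined with recombinant human IL-17A for 1 h at rt, and the mix is added to adult normal human keratinocytes so that IL-17A is 5 ng/mL. After 24 h at 37° C in 5% FBS, G-CSF released into the medium is read by HTRF and IC50 derived.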

Chain of UniProt Q16552 (Q16552 with tags, fused parts or gaps K93Q): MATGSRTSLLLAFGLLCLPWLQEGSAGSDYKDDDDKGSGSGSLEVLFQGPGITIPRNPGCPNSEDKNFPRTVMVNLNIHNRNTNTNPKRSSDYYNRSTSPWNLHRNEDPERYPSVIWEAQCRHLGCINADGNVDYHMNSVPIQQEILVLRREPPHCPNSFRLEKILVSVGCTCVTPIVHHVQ

| Compound | IC50 [1] [nM] | IC50 ([2]; Homo sapiens, Keratinocyte) [nM] | IC50 [2] [nM] |
| --- | --- | --- | --- |
| [2H]C([2H])([2H])n1nccc1C(=O)N[C@H](c1cn2ncc(C(NC(=O)CC3CC(F)(F)C3)C3CCC3)cc2n1)C1CCC(F)(F)CC1 (single isomer, unassigned) [Example 497, N—((S)-(7-((R*)-Cyclobutyl(2-(3,3-difluorocyclobutyl)acetamido)methyl)imidazo[1,2-b]pyridazin-2-yl)(4,4-difluorocyclohexyl)methyl)-1-(methyl-d3)-1H-pyrazole-5-carboxamide] | 91 | 150 | – |
| CC(C)(O)c1nonc1C(=O)N[C@H](c1cn2ncc(C(NC(=O)CC3CC(F)(F)C3)C3CCC3)cc2n1)C1CCC(F)(F)CC1 (single isomer, unassigned) [Example 499, N—((S)-(7-((R*)-Cyclobutyl(2-(3,3-difluorocyclobutyl)acetamido)methyl)imidazo[1,2-b]pyridazin-2-yl)(4,4-difluorocyclohexyl)methyl)-4-(2-hydroxypropan-2-yl)-1,2,5-oxadiazole-3-carboxamide] | 180 | 160 | – |
| Cc1nonc1C(=O)N[C@H](c1cn2ncc(C(NC(=O)CCC(F)(F)F)C(C)C)cc2n1)C1CCC(F)(F)CC1 (single isomer, unassigned) [Example 504, N—((S)-(4,4-Difluorocyclohexyl)(7-((S*)-2-methyl-1-(4,4,4-trifluorobutanamido)propyl)imidazo[1,2-b]pyridazin-2-yl)methyl)-4-methyl-1,2,5-oxadiazole-3-carboxamide] | 46 | – | 93 |
| Cc1nonc1C(=O)N[C@H](c1cn2ncc(C(C)NC(=O)CCC(F)(F)F)cc2n1)C1CCC(F)(F)CC1 (single isomer, unassigned) [Example 505, N—((S)-(4,4-Difluorocyclohexyl)(7-((R*)-1-(4,4,4-trifluorobutanamido)ethyl)imidazo[1,2-b]pyridazin-2-yl)methyl)-4-methyl-1,2,5-oxadiazole-3-carboxamide] | 5400 | – | > 20000 |
| [2H]C([2H])([2H])C([2H])([2H])n1nccc1C(=O)N[C@H](c1cn2ncc(C(CC)NC(=O)CC3CC(F)(F)C3)cc2n1)C1CCC(F)(F)CC1 (single isomer, unassigned) [Example 506, N—((S)-(7-((R*)-1-(2-(3,3-Difluorocyclobutyl)acetamido)propyl)imidazo[1,2-b]pyridazin-2-yl)(4,4-difluorocyclohexyl)methyl)-1-(ethyl-d5)-1H-pyrazole-5-carboxamide] | 200 | 130 | – |
| CCC(NC(=O)CC1CC(F)(F)C1)c1cnn2cc([C@@H](NC(=O)c3nonc3C3CC3)C3CCC(F)(F)CC3)nc2c1 (single isomer, unassigned) [Example 507, 4-Cyclopropyl-N—((S)-(7-((R*)-1-(2-(3,3-difluorocyclobutyl)acetamido)propyl)imidazo[1,2-b]pyridazin-2-yl)(4,4-difluorocyclohexyl)methyl)-1,2,5-oxadiazole-3-carboxamide] | 56 | 42 | – |
| CCC(NC(=O)CC1CC(F)(F)C1)c1cnn2cc([C@@H](NC(=O)c3nonc3C)C3CCC(F)(F)CC3)nc2c1 (single isomer, unassigned) [Example 509, N—((S)-(7-((S*)-1-(2-(3,3-Difluorocyclobutyl)acetamido)propyl)imidazo[1,2-b]pyridazin-2-yl)(4,4-difluorocyclohexyl)methyl)-4-methyl-1,2,5-oxadiazole-3-carboxamide] | 1900 | > 20000 | – |
| Cc1nonc1C(=O)N[C@H](c1cn2ncc(C(C)NC(=O)CCC(F)(F)F)cc2n1)C1CCC(F)(F)CC1 (single isomer, unassigned) [Example 510, N—((S)-(4,4-Difluorocyclohexyl)(7-((S*)-1-(4,4,4-trifluorobutanamido)ethyl)imidazo[1,2-b]pyridazin-2-yl)methyl)-4-methyl-1,2,5-oxadiazole-3-carboxamide] | 83 | – | 440 |
| CC(C)c1nonc1C(=O)N[C@H](c1cn2ncc(C(NC(=O)CCC(F)(F)F)C(C)C)cc2n1)C1CCC(F)(F)CC1 (single isomer, unassigned) [Example 511, N—((S)-(4,4-Difluorocyclohexyl)(7-((S*)-2-methyl-1-(4,4,4-trifluorobutanamido)propyl)imidazo[1,2-b]pyridazin-2-yl)methyl)-4-isopropyl-1,2,5-oxadiazole-3-carboxamide] | 46 | 21 | – |
| CC(C)C(NC(=O)CC1CC(F)(F)C1)c1cnn2cc([C@@H](NC(=O)c3nonc3C3CC3)C3CCC(F)(F)CC3)nc2c1 (single isomer, unassigned) [Example 512, 4-Cyclopropyl-N—((S)-(7-((S*)-1-(2-(3,3-difluorocyclobutyl)acetamido)-2-methylpropyl)imidazo[1,2-b]pyridazin-2-yl)(4,4-difluorocyclohexyl)methyl)-1,2,5-oxadiazole-3-carboxamide] | 30 | 35 | – |
| Cc1nonc1C(=O)N[C@H](c1cn2ncc(C(NC(=O)CC3CC(F)(F)C3)C(C)C)cc2n1)C1CCC(F)(F)CC1 (single isomer, unassigned) [Example 513, N—((S)-(7-((S*)-1-(2-(3,3-Difluorocyclobutyl)acetamido)-2-methylpropyl)imidazo[1,2-b]pyridazin-2-yl)(4,4-difluorocyclohexyl)methyl)-4-methyl-1,2,5-oxadiazole-3-carboxamide] | 74 | 150 | – |
| Cc1nonc1C(=O)N[C@H](c1cn2ncc(C(NC(=O)CCC(F)(F)F)C(F)F)cc2n1)C1CCC(F)(F)CC1 (single isomer, unassigned) [Example 516, N—((S)-(7-((R*)-2,2-Difluoro-1-(4,4,4-trifluorobutanamido)ethyl)imidazo[1,2-b]pyridazin-2-yl)(4,4-difluorocyclohexyl)methyl)-4-methyl-1,2,5-oxadiazole-3-carboxamide] | 1900 | – | > 20000 |
| O=C(CC1CC(F)(F)C1)NC(c1cnn2cc([C@@H](NC(=O)c3nonc3C3CC3)C3CCC(F)(F)CC3)nc2c1)C(F)F (single isomer, unassigned) [Example 517, 4-Cyclopropyl-N—((S)-(7-((S*)-1-(2-(3,3-difluorocyclobutyl)acetamido)-2,2-difluoroethyl)imidazo[1,2-b]pyridazin-2-yl)(4,4-difluorocyclohexyl)methyl)-1,2,5-oxadiazole-3-carboxamide] | 46 | – | 45 |
| CC(C)n1nccc1C(=O)N[C@H](c1cn2ncc(C(NC(=O)CC3CC(F)(F)C3)C(F)F)cc2n1)C1CCC(F)(F)CC1 (single isomer, unassigned) [Example 519, N—((S)-(7-((S*)-1-(2-(3,3-Difluorocyclobutyl)acetamido)-2,2-difluoroethyl)imidazo[1,2-b]pyridazin-2-yl)(4,4-difluorocyclohexyl)methyl)-1-isopropyl-1H-pyrazole-5-carboxamide] | 190 | – | 53 |
| CCC(NC(=O)CC1CC(F)(F)C1)c1cnn2cc([C@@H](NC(=O)c3ccnn3C(C)C)C3CCC(F)(F)CC3)nc2c1 (single isomer, unassigned) [Example 520, N—((S)-(7-((S*)-1-(2-(3,3-Difluorocyclobutyl)acetamido)propyl)imidazo[1,2-b]pyridazin-2-yl)(4,4-difluorocyclohexyl)methyl)-1-isopropyl-1H-pyrazole-5-carboxamide] | 660 | 5000 | – |
